Experimental data from patent US7973033B2, “Multi-cyclic cinnamide derivatives” (Eisai R&D Management Co., Ltd., priority 2006, dated 2011).

System: Aβ 42 production
Test: Quantification of Aβ Peptide in Culture of Neurons from Rat Fetus Brain
Format: cell-based
Settings: Neuron, 72 h; rat primary neuronal culture (cerebral cortex, embryonic day 18 Wistar rats); medium collected three days after addition of the compound; Aβ ELISA; read-out: Effect of reducing Aβ 42 production IC50
Method: Quantification of Aβ Peptide in Culture of Neurons from Rat Fetus Brain
(1) Rat Primary Neuronal Culture
Primary neuronal cultures were prepared from the cerebral cortex of embryonic day 18 Wistar rats (Charles River Japan, Yokohama, Japan). Specifically, the embryos were aseptically removed from pregnant rats under ether anesthesia. The brain was isolated from the embryo and immersed in an ice-cold L-15 medium (Invitrogen Corp. Cat #11415-064, Carlsbad, Calif., USA, or SIGMA L1518, for example). The cerebral cortex was collected from the isolated brain under a stereoscopic microscope. The cerebral cortex fragments collected were enzymatically treated in an enzyme solution containing 0.25% trypsin (Invitrogen Corp. Cat #15050-065, Carlsbad, Calif., USA) and 0.01% DNase (Sigma D5025, St. Louis, Mo., USA) at 37° C. for 30 minutes to disperse the cells. Here, the enzymatic reaction was stopped by adding inactivated horse serum to the solution. The enzymatically treated solution was centrifuged at 1,500 rpm for five minutes to remove the supernatant. 5 to 10 ml of a medium was added to the resulting cell mass. Neurobasal medium (Invitrogen Corp. Cat #21103-049, Carlsbad, Calif., USA) supplemented with 2% B27 supplement (Invitrogen Corp. Cat #17504-044, Carlsbad, Calif., USA), 25 μM 2-mercaptoethanol (2-ME, WAKO Cat #139-06861, Osaka, Japan), 0.5 mM L-glutamine (Invitrogen Corp. Cat #25030-081, Carlsbad, Calif., USA), and Antibiotics-Antimycotics (Invitrogen Corp. Cat #15240-062, Carlsbad, Calif., USA) was used as the medium (Neurobasal/B27/2-ME). However, the above Neurobasal medium not supplemented with 2-ME (Neurobasal/B27) was used for the assay. The cells were redispersed by mild pipetting of the cell mass to which the medium was added. The cell dispersion was filtered through a 40-μm nylon mesh (Cell Strainer, Cat #35-2340, Becton Dickinson Labware, Franklin Lakes, N.J., USA) to remove the remaining cell mass, and thus a neuronal cell suspension was obtained. The neuronal cell suspension was diluted with the medium and then plated in a volume of 100 μl/well at an initial cell density of 5×10^5 cells/cm^2 in a 96-well polystyrene culture plate pre-coated with poly-L or D-lysine (Falcon Cat #35-3075, Becton Dickinson Labware, Franklin Lakes, N.J., USA coated with poly-L-lysine using the method shown below, or BIOCOAT™ cell environments Poly-D-lysine cell ware 96-well plate, Cat #35-6461, Becton Dickinson Labware, Franklin Lakes, N.J., USA). Poly-L-lysine coating was carried out as follows. 100 μg/ml of a poly-L-lysine (SIGMA P2636, St. Louis, Mo., USA) solution was aseptically prepared with a 0.15 M borate buffer (pH 8.5). 100 μl/well of the solution was added to the 96-well polystyrene culture plate and incubated at room temperature for one or more hours or at 4° C. overnight or longer. The coated 96-well polystyrene culture plate was washed with sterile water four or more times, and then dried or rinsed with, for example, sterile PBS or medium, and used for cell plating. The plated cells were cultured in the culture plate at 37° C. in 5% CO2-95% air for one day. Then, the total amount of the medium was replaced with a fresh Neurobasal™/B27/2-ME medium, and then the cells were cultured for further three days.
The drug was added to the culture plate on Day 4 of culture as follows. The total amount of the medium was removed from the wells, and 180 μl/well of Neurobasal medium not containing 2-ME and containing 2% B-27 (Neurobasal/B27) was added thereto. A solution of the test compound in dimethyl sulfoxide (hereinafter abbreviated as DMSO) was diluted with Neurobasal/B27 at 10-fold of the final concentration. 20 μl/well of the dilution was added to and sufficiently mixed with the medium. The final DMSO concentration was 1% or less. Only DMSO was added to the control group.
The cells were cultured for three days after addition of the compound, and the total amount of the medium was collected. […]

Row | SMILES | IC50 [nM]
1 | COc1cc(/C=C/c2nc3n(n2)CCCC3(O)c2ccc(Cl)cc2)ccc1-n1cnc(C)c1 (single isomer, unassigned) [Example 153, (−)-8-(4-chlorophenyl)-2-{(E)-2-[3-methoxy-4-(4-methyl-1H-imidazol-1-yl)phenyl]vinyl}-5,6,7,8-tetrahydro[1,2,4]triazolo[1,5-a]pyridin-8-ol] | 31
2 | COc1cc(/C=C/c2nc3n(n2)CCC[C@]3(O)c2ccc(C)cc2)ccc1-n1cnc(C)c1 (single isomer, unassigned) [Example 155, (−)-2-{(E)-2-[3-methoxy-4-(4-methyl-1H-imidazol-1-yl)phenyl]vinyl}-8-p-tolyl-5,6,7,8-tetrahydro[1,2,4]triazolo[1,5-a]pyridin-8-ol] | 39
3 | COc1cc(/C=C/c2nc3n(n2)CCC[C@H]3c2ccccc2)ccc1-n1cnc(C)c1 (single isomer, unassigned) [Example 172, (−)-2-{(E)-2-[3-methoxy-4-(4-methyl-1H-imidazol-1-yl)phenyl]vinyl}-8-phenyl-5,6,7,8-tetrahydro[1,2,4]triazolo[1,5-a]pyridine] | 11
4 | COc1cc(/C=C/c2nc3n(n2)CCC[C@H]3c2ccccc2Br)ccc1-n1cnc(C)c1 (single isomer, unassigned) [Example 174, (−)-8-(2-bromophenyl)-2-{(E)-2-[3-methoxy-4-(4-methyl-1H-imidazol-1-yl)phenyl]vinyl}-5,6,7,8-tetrahydro[1,2,4]triazolo[1,5-a]pyridine] | 23
5 | COc1cc(/C=C/c2nc3n(n2)CCOC3c2ccc(Br)cc2)ccc1-n1cnc(C)c1 (single isomer, unassigned; (-)) [Example 143, (−)-8-(4-bromophenyl)-2-{(E)-2-[3-methoxy-4-(4-methyl-1H-imidazol-1-yl)phenyl]vinyl}-5,6-dihydro-8H-[1,2,4]triazolo[5,1-c][1,4]oxazine] | 22
6 | COc1cc(/C=C/c2nc(-c3ccc(F)cc3)c[nH]2)ccc1-n1cnc(C)c1 [Example 1, 4-(4-fluorophenyl)-2-{(E)-2-[3-methoxy-4-(4-methyl-1H-imidazol-1-yl)phenyl]vinyl}-1H-imidazole] | 45
7 | COc1cc(/C=C/c2nc(-c3ccccc3)c[nH]2)ccc1-n1cnc(C)c1 [Example 4, 2-{(E)-2-[3-methoxy-4-(4-methyl-1H-imidazol-1-yl)phenyl]vinyl}-4-phenyl-1H-imidazole] | 76
8 | COc1cc(/C=C/c2nc(-c3ccccc3)cn2C)ccc1-n1cnc(C)c1 [Example 5, 2-{(E)-2-[3-methoxy-4-(4-methyl-1H-imidazol-1-yl)phenyl]vinyl}-1-methyl-4-phenyl-1H-imidazole] | 18
9 | COC(=O)c1[nH]c(/C=C/c2ccc(-n3cnc(C)c3)c(OC)c2)nc1-c1ccc(F)cc1 [Example 6, methyl 5-(4-fluorophenyl)-2-{(E)-2-[3-methoxy-4-(4-methyl-1H-imidazol-1-yl)phenyl]vinyl}-1H-imidazole-4-carboxylate] | 60
10 | COc1cc(/C=C/c2nc(-c3ccc(F)cc3)c(CO)[nH]2)ccc1-n1cnc(C)c1 [Example 7, 5-(4-fluorophenyl)-2-{(E)-2-[3-methoxy-4-(4-methyl-1H-imidazol-1-yl)phenyl]vinyl}-(1H-imidazol-4-yl)methanol] | 67
11 | COc1cc(/C=C/c2nc(-c3ccc(F)cc3)c(C(=O)NCCCl)[nH]2)ccc1-n1cnc(C)c1 [Example 9, 5-(4-fluorophenyl)-2-{(E)-2-[3-methoxy-4-(4-methyl-1H-imidazol-1-yl)phenyl]vinyl}-1H-imidazole-4-carboxylic acid (2-chloroethyl)amide] | 83
12 | COc1cc(/C=C/c2nc(-c3ccc(F)cc3)c3n2CCNC3=O)ccc1-n1cnc(C)c1 [Example 10, 1-(4-fluorophenyl)-3-{(E)-2-[3-methoxy-4-(4-methyl-1H-imidazol-1-yl)phenyl]vinyl}-6,7-dihydro-5H-imidazo[1,5-a]pyrazin-8-one] | 130
13 | COc1cc(/C=C/c2nc(-c3ccc(F)cc3)c3n2CCOC3)ccc1-n1cnc(C)c1 [Example 13, 1-(4-fluorophenyl)-3-{(E)-2-[3-methoxy-4-(4-methyl-1H-imidazol-1-yl)phenyl]vinyl}-5,6-dihydro-8H-imidazo[5,1-c][1,4]oxazine] | 170
14 | COc1cc(/C=C/c2nc(-c3ccc(F)cc3)c3n2CCN(C)C3)ccc1-n1cnc(C)c1 [Example 15, 1-(4-fluorophenyl)-3-{(E)-2-[3-methoxy-4-(4-methyl-1H-imidazol-1-yl)phenyl]vinyl}-7-methyl-5,6,7,8-tetrahydroimidazo[1,5-a]pyrazine] | 180
15 | COc1cc(/C=C/c2nnc(Cc3ccc(F)cc3)[nH]2)ccc1-n1cnc(C)c1 [Example 17, 3-(4-fluorobenzyl)-5-{(E)-2-[3-methoxy-4-(4-methyl-1H-imidazol-1-yl)phenyl]vinyl}-4H-[1,2,4]triazole] | 58
16 | COc1cc(/C=C2\CCCn3c(-c4ccc(F)cc4)cnc32)ccc1-n1cnc(C)c1 [Example 18, 3-(4-fluorophenyl)-8-{1-[3-methoxy-4-(4-methyl-1H-imidazol-1-yl)phenyl]-(E)-methylidene}-5,6,7,8-tetrahydroimidazo[1,2-a]pyridine] | 170
17 | COC(=O)c1nc2n(c1-c1ccc(F)cc1)CCC/C2=C\c1ccc(-n2cnc(C)c2)c(OC)c1 [Example 21, methyl 3-(4-fluorophenyl)-8-{1-[3-methoxy-4-(4-methyl-1H-imidazol-1-yl)phenyl]-(E)-methylidene}-5,6,7,8-tetrahydroimidazo[1,2-a]pyridine-2-carboxylate] | 41
18 | COC(=O)c1c(-c2ccc(F)cc2)nc2n1CCC/C2=C\c1ccc(-n2cnc(C)c2)c(OC)c1 [Example 22, methyl 2-(4-fluorophenyl)-8-{1-[3-methoxy-4-(4-methyl-1H-imidazol-1-yl)phenyl]-(E)-methylidene}-5,6,7,8-tetrahydroimidazo[1,2-a]pyridine-3-carboxylate] | 170
19 | COc1cc(/C=C2\CCCn3c2nc(CO)c3-c2ccc(F)cc2)ccc1-n1cnc(C)c1 [Example 23, {3-(4-fluorophenyl)-8-{1-[3-methoxy-4-(4-methyl-1H-imidazol-1-yl)phenyl]-(E)-methylidene}-5,6,7,8-tetrahydroimidazo[1,2-a]pyridin-2-yl}methanol] | 60
20 | COc1cc(/C=C/c2nnc(CCc3ccc(F)cc3)[nH]2)ccc1-n1cnc(C)c1 [Example 32, 3-[2-(4-fluorophenyl)ethyl]-5-{(E)-2-[3-methoxy-4-(4-methyl-1H-imidazol-1-yl)phenyl]vinyl}-4H-[1,2,4]triazole] | 62
21 | COc1cc(/C=C/c2nc(C(C)c3ccccc3)n(C)n2)ccc1-n1cnc(C)c1 (centres unmarked) [Example 45, 3-{(E)-2-[3-methoxy-4-(4-methyl-1H-imidazol-1-yl)phenyl]vinyl}-1-methyl-5-(1-phenylethyl)-1H-[1,2,4]triazole] | 85
22 | COc1cc(/C=C/c2nnc(C(C)(C)c3ccccc3)[nH]2)ccc1-n1cnc(C)c1 [Example 49, 3-{(E)-2-[3-methoxy-4-(4-methyl-1H-imidazol-1-yl)phenyl]vinyl}-5-(1-methyl-1-phenylethyl)-4H-[1,2,4]triazole] | 63
23 | COc1cc(/C=C/c2nc3n(n2)CCC[C@@H]3c2ccc(OC(F)(F)F)cc2)ccc1-n1cnc(C)c1 [Example 129, (−)-2-{(E)-2-[3-methoxy-4-(4-methyl-1H-imidazol-1-yl)phenyl]vinyl}-8-(4-trifluoromethoxyphenyl)-5,6,7,8-tetrahydro[1,2,4]triazolo[1,5-a]pyridine] | 17
